# Read-outs that look alike come from different tables or passages of the source.
# Target: T1, BRISC (Homo sapiens, UniProt P46736+Q15018)
# T1 construct: made in house; host or cells: insect cells (MultiBac baculovirus)
# Test: BRISC DUB inhibition assay with quenched K63-linked di-ubiquitin substrate (TAMRA fluorescence)
# Format: biochemical
# Experimental: High throughput screening. A baculoviral expression system was established to purify milligram quantities of the entire BRISC complex from insect cells. The MultiBac system was used to clone all 4 components of the BRISC complex into one vector which was then packaged into the baculovirus genome using the methods described in Zeqiraj et al., 2015 (Mol. Cell).
# The assay buffer included: 50 mM HEPES-NaOH, pH 7.0; 100 mM NaCl; 1 mM DTT; 1 mg/ml BSA; and 0.03% Brij-35. BRISC was assayed at 1 nM (final concentration) with the substrate at 500 nM (final concentration). The final reaction volume was 20 μl in each 384 plate well (Corning, #3573; black, low flange, flat bottom) with a final concentration of compounds of 10 μM.
# A 5 ml of enzyme solution with BRISC at 2 nM in assay buffer was made by adding 10 μl of BRISC working stock (1 μM) to 5 ml of assay buffer. A 5 ml of substrate solution was made with […] of K63-diUbiquitin (made in-house) plus […] of IQF K63-diUbiquitin by adding the appropriate volumes of diUbiquitins to 5 ml of assay buffer. 45 μL of BRISC (enzyme solution) was dispensed into columns 1-11 of a 96 well PCR plate (skirted). Buffer was only dispensed in column 12 (no enzyme control). 45 μl of substrate solution was dispensed into columns 1-12 of a 96 well PCR plate (skirted). The plate was spun down at 3000 rpm (bench top centrifuge) at room temp for 2 min to remove any air bubbles. Using a Biomek FX, liquid handler (Bekman), 10 μl of BRISC (enzyme solution) was dispensed into the 4 quadrants of a 384 well plate. 200 nl of compounds was dispensed into each well of the 384 plates using the pin tool (columns A and B usually contain DMSO only, and serve as controls), and the plates were incubated for 10-15 minutes at room temperature. 10 μl of substrate solution was dispensed into the 4 quadrants of the 384 well plate. The plate was then incubated for 30 min at room temperature in the dark and read with settings suitable for detecting TAMRA fluorescence (excitation wavelength of 540 nm and emission wavelength of 580 nm). A PHERAStar plate (BMG labtech) reader was used with a gain value of 570. The Intensity/Background (I/Bg), defined as [(Average of columns 1 and 2; DMSO controls)/(Average of columns 23 and 24; no enzyme controls)], were about 5.
# The activities of the compounds disclosed in the present disclosure in inhibiting BRCC36 enzyme activity was measured in accordance with the method disclosed in Example 2.
# [1] = Table 2, method of Example 2, read-out: BRISC IC50 μM Range
smiles,measurement,setting,value
O=C(NC1CCNCC1)c1nn(S(=O)(=O)c2cc(Cl)cc(Cl)c2)cc1NC(=O)c1c(Cl)cccc1Cl [Compound 3],IC50,"Table 1, Activity Range Table",1 to 10 µM
O=C(NC1CCNCC1)c1nn(S(=O)(=O)c2ccc(Cl)cc2)cc1NC(=O)c1c(Cl)cccc1Cl [Compound 4],IC50,"Table 1, Activity Range Table",1 to 10 µM
O=C(NC1CCNCC1)c1nn(S(=O)(=O)c2ccccc2)cc1NC(=O)c1c(Cl)cccc1Cl [Compound 5],IC50,"Table 1, Activity Range Table",10 to 50 µM
O=C(NC1CCNCC1)c1nn(S(=O)(=O)CCc2ccccc2)cc1NC(=O)c1c(Cl)cccc1Cl [Compound 6],IC50,"Table 1, Activity Range Table",1 to 10 µM
O=C(Nc1cn(C(=O)c2c(Cl)cccc2Cl)nc1C(=O)N1CCNCC1)c1c(Cl)cccc1Cl [Compound 7],IC50,"Table 1, Activity Range Table",1 to 10 µM
O=C(N[C@@H]1CCNC1)c1nn(C(=O)c2c(Cl)cccc2Cl)cc1NC(=O)c1c(Cl)cccc1Cl [Compound 8],IC50,"Table 1, Activity Range Table",1 to 10 µM
O=C(N[C@H]1CCNC1)c1nn(C(=O)c2c(Cl)cccc2Cl)cc1NC(=O)c1c(Cl)cccc1Cl [Compound 9],IC50,"Table 1, Activity Range Table",1 to 10 µM
NCCCNC(=O)c1nn(C(=O)c2c(Cl)cccc2Cl)cc1NC(=O)c1c(Cl)cccc1Cl [Compound 10],IC50,"Table 1, Activity Range Table",1 to 10 µM
CN(C(=O)c1nn(C(=O)c2c(Cl)cccc2Cl)cc1NC(=O)c1c(Cl)cccc1Cl)C1CCNCC1 [Compound 11],IC50,"Table 1, Activity Range Table",1 to 10 µM
CC1CNCCC1NC(=O)c1nn(C(=O)c2c(Cl)cccc2Cl)cc1NC(=O)c1c(Cl)cccc1Cl (centres unmarked) [Compound 12],IC50,"Table 1, Activity Range Table",1 to 10 µM
O=C(NC1C2CNCC21)c1nn(C(=O)c2c(Cl)cccc2Cl)cc1NC(=O)c1c(Cl)cccc1Cl (centres unmarked) [Compound 13],IC50,"Table 1, Activity Range Table",1 to 10 µM
CN(C(=O)c1nn(C(=O)c2c(Cl)cccc2Cl)cc1NC(=O)c1c(Cl)cccc1Cl)C1CNC1 [Compound 15],IC50,"Table 1, Activity Range Table",10 to 50 µM
O=C(NC1CNC1)c1nn(C(=O)c2c(Cl)cccc2Cl)cc1NC(=O)c1c(Cl)cccc1Cl [Compound 17],IC50,"Table 1, Activity Range Table",10 to 50 µM
"COc1ccccc1NC(=O)n1cc(NC(=O)c2c(Cl)cccc2Cl)c(C(=O)NC2CCNCC2)n1 [Compound 18, 4-(2,6-dichlorobenzamido)-N1-(2-methoxyphenyl)-N3-(piperidin-4-yl)-1H-pyrazole-1,3-dicarboxamide]",IC50,"Table 1, Activity Range Table",10 to 50 µM
COc1ccccc1NC(=O)n1cc(NC(=O)c2c(Cl)cccc2Cl)c(C(=O)NC2CCNCC2)n1 [Compound 19],IC50,"Table 1, Activity Range Table",10 to 50 µM
O=C(NCCN1CCCC1)c1nn(C(=O)c2c(Cl)cccc2Cl)cc1NC(=O)c1c(Cl)cccc1Cl [Compound 20],IC50,"Table 1, Activity Range Table",10 to 50 µM
COC(=O)c1ccccc1NC(=O)n1cc(NC(=O)c2c(Cl)cccc2Cl)c(C(=O)NCCCN2CCCC2)n1 [Compound 21],IC50,"Table 1, Activity Range Table",50 to 300 µM
O=C(NC1CCNCC1)c1nn(S(=O)(=O)c2cccc(Cl)c2)cc1NC(=O)c1c(Cl)cccc1Cl [Compound 24],IC50,"Table 1, Activity Range Table",50 to 300 µM
O=C(NC1CCNCC1)c1nn(S(=O)(=O)c2ccccc2Cl)cc1NC(=O)c1c(Cl)cccc1Cl [Compound 25],IC50,"Table 1, Activity Range Table",50 to 300 µM
O=C(NC1CCNCC1)c1nn(S(=O)(=O)c2cc(C(F)(F)F)ccc2Cl)cc1NC(=O)c1c(Cl)cccc1Cl [Compound 26],IC50,"Table 1, Activity Range Table",50 to 300 µM
O=C(NC1CCNCC1)c1nn(S(=O)(=O)c2cc(Cl)cc(C(F)(F)F)c2)cc1NC(=O)c1c(Cl)cccc1Cl [Compound 27],IC50,"Table 1, Activity Range Table",50 to 300 µM
C[N+]1(C)CCC(NC(=O)c2nn(C(=O)c3c(Cl)cccc3Cl)cc2NC(=O)c2c(Cl)cccc2Cl)CC1 [Compound 29],IC50,"Table 1, Activity Range Table",10 to 50 µM
"O=C(NC1CCNCC1)c1nn(S(=O)(=O)c2ccc(OCCCN3C(=O)c4ccccc4C3=O)cc2)cc1NC(=O)c1c(Cl)cccc1Cl [Compound 30, 4-(2,6-dichlorobenzamido)-1-(4-(3-(1,3-dioxoisoindolin-2-yl)propoxy)phenylsulfonyl)-N-(piperidin-4-yl)-1H-pyrazole-3-carboxamide]",IC50,"Table 1, Activity Range Table",1 to 10 µM
O=C(NC1CCNCC1)c1nn(S(=O)(=O)CCc2ccc(Cl)cc2)cc1NC(=O)c1c(Cl)cccc1Cl [Compound 31],IC50,"Table 1, Activity Range Table",1 to 10 µM
"C#CCCCCOC(=O)COc1ccc(S(=O)(=O)n2cc(NC(=O)c3c(Cl)cccc3Cl)c(C(=O)NC3CCNCC3)n2)cc1 [Compound 32, Hex-5-ynyl 2-(4-(4-(2,6-dichlorobenzamido)-3-(piperidin-4-ylcarbamoyl)-1H-pyrazol-1-ylsulfonyl)phenoxy)acetate]",IC50,"Table 1, Activity Range Table",10 to 50 µM
"COC(=O)COc1ccc(S(=O)(=O)n2cc(NC(=O)c3c(Cl)cccc3Cl)c(C(=O)NC3CCNCC3)n2)cc1 [Compound 33, Methyl 2-(4-(4-(2,6-dichlorobenzamido)-3-(piperidin-4-ylcarbamoyl)-1H-pyrazol-1-ylsulfonyl)phenoxy)acetate]",IC50,"Table 1, Activity Range Table",50 to 300 µM
"NCCCOc1ccc(S(=O)(=O)n2cc(NC(=O)c3c(Cl)cccc3Cl)c(C(=O)NC3CCNCC3)n2)cc1 [Compound 34, 1-(4-(3-aminopropoxy)phenylsulfonyl)-4-(2,6-dichlorobenzamido)-N-(piperidin-4-yl)-1H-pyrazole-3-carboxamide]",IC50,"Table 1, Activity Range Table",50 to 300 µM
O=C(NC1CCNCC1)c1nn(C(=O)Nc2ccc(Cl)cc2)cc1NC(=O)c1c(Cl)cccc1Cl [Compound 35],IC50,"Table 1, Activity Range Table",50 to 300 µM
O=C(NC1CCNCC1)c1nn(C(=O)Nc2cccc(Cl)c2)cc1NC(=O)c1c(Cl)cccc1Cl [Compound 36],IC50,"Table 1, Activity Range Table",50 to 300 µM
CN1CCC(NC(=O)c2nn(C(=O)c3c(Cl)cccc3Cl)cc2NC(=O)c2c(Cl)cccc2Cl)CC1 [Compound 37],IC50,"Table 1, Activity Range Table",1 to 10 µM
"C#CCCCCOc1ccc(S(=O)(=O)n2cc(NC(=O)c3c(Cl)cccc3Cl)c(C(=O)NC3CCNCC3)n2)cc1 [Compound 41, 4-(2,6-Dichlorobenzamido)-1-(4-(hex-5-ynyloxy)phenylsulfonyl)-N-(piperidin-4-yl)-1H-pyrazole-3-carboxamide]",IC50,[1],1 to 10 µM
"CCOc1cc(C(C)(C)C)ccc1C1=N[C@@](C)(c2ccc(Cl)cc2)[C@@](C)(c2ccc(Cl)cc2)N1C(=O)N1CCN(CC(=O)NCCOCCOCCn2cc(CCCCOc3ccc(S(=O)(=O)n4cc(NC(=O)c5c(Cl)cccc5Cl)c(C(=O)NC5CCNCC5)n4)cc3)nn2)CC1 [Compound 42, 1-(4-(4-(1-(2-(2-(2-(2-(4-((4S,5R)-2-(4-Tert-butyl-2-ethoxyphenyl)-4,5-bis(4-chlorophenyl)-4,5-dimethyl-4,5-dihydro-1H-imidazole-1-carbonyl)piperazin-1-yl)acetamido)ethoxy)ethoxy)ethyl)-1H-1,2,3-triazol-4-yl)butoxy)phenylsulfonyl)-4-(2,6-dichlorobenzamido)-N-(piperidin-4-yl)-1H-pyrazole-3-carboxamide]",IC50,[1],0.1 to 1 µM
"Cc1ncsc1-c1ccc(CNC(=O)[C@@H]2C[C@H](O)CN2C(=O)[C@@H](NC(=O)COCCOCCOCCn2cc(CCCCOc3ccc(S(=O)(=O)n4cc(NC(=O)c5c(Cl)cccc5Cl)c(C(=O)NC5CCNCC5)n4)cc3)nn2)C(C)(C)C)cc1 [Compound 43, 4-(2,6-dichlorobenzamido)-1-(4-(4-(1-((S)-13-((2S,4S)-4-hydroxy-2-(4-(4-methylthiazol-5-yl)benzylcarbamoyl)pyrrolidine-1-carbonyl)-14,14-dimethyl-11-oxo-3,6,9-trioxa-12-azapentadecyl)-1H-1,2,3-triazol-4-yl)butoxy)phenylsulfonyl)-N-(piperidin-4-yl)-1H-pyrazole-3-carboxamide]",IC50,[1],0.1 to 1 µM
COC(=O)c1cnc2c(SCc3ccccn3)cccc2c1 [Compound 54],IC50,[1],10 to 50 µM
C[C@@H]1CNCCN1C(=O)c1nn(C(=O)c2c(Cl)cccc2Cl)cc1NC(=O)c1c(Cl)cccc1Cl [Compound 55],IC50,[1],1 to 10 µM

# — patent US20260193229A1, “BRISC DEUBIQUITINATING ENZYME INHIBITORS” (THE TRUSTEES OF THE UNIVERSITY OF PENNSYLVANIA, priority 2022, published 2026)
